From patent publication US9796764B2, “Cyclotide genes in the fabaceae plant family” (The University of Queensland, priority 2011, dated 2017)
Where a SMILES comes first, the peptide text is derived from it.

Legend:
[1] = Haemolytic activity assay; assay type: cell-based, human; conditions: washed human red blood cells; % of maximum lysis (1% Triton X-100); read-out: haemolytic dose necessary to lyse 50% of the RBCs (HD50)
Protocol: (§1) Serially diluted peptide solutions were incubated with washed human red blood cells. Following incubation, the supernatant was transferred before the UV absorbance was measured. The amount of haemolysis was calculated as the percentage of maximum lysis (1% Triton X-100 control) after adjusting for minimum lysis (PBS control). Synthetic melittin was used for comparison. The haemolytic dose necessary to lyse 50% of the RBCs (HD50) was calculated using the regression constant from the linear portion of the haemolytic titration curve (Graphpad Prism software).

human red blood cells = experiment: Haemolytic activity assay; assay type: cell-based; conditions: human red blood cells
Protocol: as §1

[2] = test system: L3-stage larvae of Haemonchus contortus; experiment: Larval migration (motility) assay; assay type: cell-based; conditions: against Haemonchus contortus
Protocol: The effect of kB1 and Cter M on the motility of L3-stage larvae of Haemonchus contortus was assessed using a previously described method (Colgrave, et al., 2010, Antimicrob. Agents Ch. 54:2160-2166). The larvae were incubated in PBS containing a range of peptide concentrations for 24 h in the dark in a 96-well plate format. The motility of the worms was assessed wherein sinusoidal motion was indicative of health and loss of motility or the degree of motility was indicative of poor health. Nematodes that had been incubated with cyclotides were compared to control (no-peptide) wells.

[3] = test system: Helicoverpa armigera larvae; experiment: Insecticidal feeding trial; assay type: in vivo; conditions: against the cotton budworm Helicoverpa armigera
Protocol: H. armigera larvae were obtained from the Queensland Department of Employment, Economic Development & Innovation. A feeding trial was conducted for 48 h with larvae maintained at 25° C. throughout the experiment. Larvae were given diets consisting of wheat germ, yeast, and soy flour.

[4] = Binding to immobilized lipid vesicles (sensorgram); conditions: PE membranes
[5] = Heat denaturation, NMR spectra before and after heating; assay type: physicochemical; conditions: 95° C. for 5 minutes
Excerpt: (B) Superposition of the 20 lowest energy structures of Cter M. Secondary structure of Cter M (C) and PA1b (E; PDB code 1P8B). The strands are shown as arrows and the helical turns as thickened ribbons. The disulfide bonds are shown in ball-and-stick format. The structure figures were generated using MOLMOL (Koradi, R., Billeter, M. & Wüthrich, K. (1996) J. Mol. Graph. 14, 29-32). Superimposition of Cter M and PA1b (D) showing cystine knot motif; disulfide bonds are indicated, and the aC are represented by spheres.
The structure of Cter M is extremely stable evidenced by its resistance to heat denaturation. […] An ensemble and ribbon representation of the three dimensional structure is shown in FIG. 14 along with a comparison with PA1b, the pea albumin whose precursor shares high sequence homology with the Cter gene.

trypsin = target: T1, trypsin (Bos taurus, UniProt P00760); experiment: Proteolysis by trypsin (MS of leaf extract); assay type: in vitro ADME; conditions: native Cter M in leaf extract
T1 construct: purchased Sigma T1426
T1 sequence (P00760 24-246): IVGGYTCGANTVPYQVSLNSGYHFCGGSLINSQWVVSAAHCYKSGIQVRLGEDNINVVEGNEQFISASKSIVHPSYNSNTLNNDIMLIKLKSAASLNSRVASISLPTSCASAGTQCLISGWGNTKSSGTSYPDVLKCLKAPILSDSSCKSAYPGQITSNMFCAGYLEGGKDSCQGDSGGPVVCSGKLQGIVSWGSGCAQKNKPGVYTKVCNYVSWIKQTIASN
Excerpt: (§2) The reduced and alkylated peptide, m/z 3407.6 (E, G, I) underwent proteolytic cleavage by trypsin (F) and chymotrypsin (H, J). As there is only a single tryptic site, the trypsin digestion product is observed at m/z 3424.6, whereas there were three chymotryptic sites resulting in the formation of major products at m/z 1450.7, 1511.7 and 1931.8 corresponding to KNGLPTCGETCL (SEQ ID NO:129), VPDCSCSWPICM (SEQ ID NO:130) and KNGLPTCGETCLGTCY (SEQ ID NO:131) respectively.

chymotrypsin = experiment: Proteolysis by chymotrypsin (MS of leaf extract); assay type: in vitro ADME; conditions: native Cter M in leaf extract
Excerpt: as §2

[6] = Solubility of the synthetic peptide; assay type: physicochemical
Protocol: Synthesis Cter M was synthesized using solid phase peptide synthesis and folded using conditions earlier established for other cyclotides (Daly, N. L., et al., (1999) Biochemistry 38, 10606-10614) including the use of 50% isopropanol in buffer. […] The NMR spectra of the native and synthetic Cter M peptides were recorded and found to be identical. The three-dimensional structure of Cter M was calculated with 398 distance restraints and 11 angle restraints using a simulated annealing protocol in CNS.

## CC[C@H](C)[C@@H]1NC(=O)[C@@H]2CCCN2C(=O)[C@H](Cc2c[nH]c3ccccc23)NC(=O)[C@H](CO)NC(=O)[C@@H]2CSSC[C@@H]3NC(=O)[C@H]([C@@H](C)O)NC(=O)[C@H](CCC(=O)O)NC(=O)CNC(=O)[C@@H]4CSSC[C@H](NC(=O)[C@H](CC(=O)O)NC(=O)[C@@H]5CCCN5C(=O)[C@H](C(C)C)NC(=O)[C@H](Cc5ccc(O)cc5)NC(=O)[C@H](CSSC[C@H](NC1=O)C(=O)N[C@@H](CCSC)C(=O)N[C@@H](CCCCN)C(=O)N[C@@H](CC(N)=O)C(=O)NCC(=O)N[C@@H](CC(C)C)C(=O)N1CCC[C@H]1C(=O)N[C@@H]([C@@H](C)O)C(=O)N4)NC(=O)[C@H]([C@@H](C)O)NC(=O)CNC(=O)[C@H](CC(C)C)NC(=O)[C@H]([C@@H](C)O)NC3=O)C(=O)N[C@@H](CO)C(=O)N2 [Cter M] (HELM PEPTIDE1{C.G.E.T.C.T.L.G.T.C.Y.V.P.D.C.S.C.S.W.P.I.C.M.K.N.G.L.P.T}$PEPTIDE1,PEPTIDE1,1:R3-15:R3|PEPTIDE1,PEPTIDE1,5:R3-17:R3|PEPTIDE1,PEPTIDE1,10:R3-22:R3|PEPTIDE1,PEPTIDE1,1:R1-29:R2$$$V2.0)
[1]
  HC50: > 100 µM
Human red blood cells
  haemolytic activity: mildly haemolytic
[2]
  anthelmintic activity: anthelmintic activity
[3]
  insecticidal activity: insecticidal activity
[4]
  membrane binding: binds to PE membranes
[5]
  resistance to heat denaturation (change in NMR spectra): no changes were observed in the spectra
trypsin
  hydrolysis by trypsin: no observed hydrolysis
chymotrypsin
  hydrolysis by chymotrypsin: no observed hydrolysis
[6]; addition of acetonitrile
  solubility on addition of acetonitrile: greatly improved the solubility
[6]; water
  solubility in water: relatively low solubility in water

## CC(C)C[C@@H]1NC(=O)CNC(=O)[C@H](CC(N)=O)NC(=O)[C@H](CCCNC(=N)N)NC(=O)[C@H]([C@@H](C)O)NC(=O)[C@@H]2CSSC[C@@H]3NC(=O)[C@H]([C@@H](C)O)NC(=O)CNC(=O)CNC(=O)[C@H](C(C)C)NC(=O)[C@@H]4CSSC[C@H](NC(=O)[C@H]([C@@H](C)O)NC(=O)[C@H](CSSC[C@H](NC(=O)[C@H](C(C)C)NC(=O)[C@@H]5CCCN5C1=O)C(=O)NCC(=O)N[C@@H](CCC(=O)O)C(=O)N[C@@H]([C@@H](C)O)C(=O)N4)NC(=O)CNC(=O)[C@@H]1CCCN1C(=O)[C@H]([C@@H](C)O)NC(=O)[C@H](CC(N)=O)NC3=O)C(=O)N[C@@H](CO)C(=O)N[C@@H](Cc1c[nH]c3ccccc13)C(=O)N1CCC[C@H]1C(=O)N[C@@H](C(C)C)C(=O)N2 [kB1, kalata B1, reference compound]
[1]
  HC50: 7.8 µM
